{"source": "paper PMC9503133", "about": "“In Vitro Release, Mucosal Permeation and Deposition of Cannabidiol from Liquisolid Systems: The Influence of Liquid Vehicles” (Pharmaceutics, 2022)", "key": {"[1]": {"experiment": "CBD solubility in liquid vehicles (excess CBD, shaking 24 h, HPLC)", "type": "physicochemical", "experimental": "The solubility of CBD in the investigated liquids was examined by adding the excess mass of CBD into 1 g of each test liquid in a test tube. The mixture was sonicated (1 h) using an ultrasonicator (Model LUC-405, Daihan Labtech Co., Ltd., Namyangju-si, Korea) and agitated constantly (37 ± 0.5 °C, 24 h) using a shaking water bath (Model LSB-030S, Daihan Labtech Co., Ltd., Namyangju-si, Korea), and the supernatant was filtered through a 0.45 μm syringe filter. The obtained filtrate was weighed, diluted and quantified by HPLC assay. The CBD solubility in the terms of the mg of CBD per g of liquid was calculated.\nThe amount of CBD was assessed using a modified HPLC method. An Agilent series 1260 combined with an Agilent ZORBAX Eclipse Plus column (C18, 100 × 4.6 mm, 3.5 μm) (Agilent Technologies, Inc., Santa Clara, CA, USA.) was used. The chromatographic separation was attained in 10 min using an isocratic protocol with a mixture of water:acetonitrile (30:70 v/v) comprising 0.1% formic acid set at a 1.5 mL/min flow rate. The injection volume was 20 µL. The column temperature was set at 45 °C, while the UV detector was set to 220 nm."}, "[2]": {"conditions": "cited from earlier work"}, "[3]": {"set-up": "method as in PMID 34774694, PMID 32882367", "conditions": "ref [3],[4]; cited from earlier work"}}, "note": "Values joined by “and” are separate entries in the source; they are usually repeats but may differ in a detail not shown here. Equal entries are not always repeated. Where two headings read alike, the source gives them in different places. Marks after values point to notes of the source that are not given here.", "data": [{"smiles": "C=C(C)[C@@H]1CCC(C)=C[C@H]1c1c(O)cc(CCCCC)cc1O", "note": "[CBD, Cannabidiol]", "values": [{"measurement": "CBD Solubility", "setting": "[1]; in CM, 37 ± 0.5 °C", "result": "386.77 ± 48.85 ^b mg/g"}, {"measurement": "CBD Solubility", "setting": "[1]; in DEGEE, 37 ± 0.5 °C", "result": "579.46 ± 11.79 ^a mg/g"}, {"measurement": "CBD Solubility", "setting": "[1]; in EtOH, 37 ± 0.5 °C", "result": ">1000", "unit": "mg/g"}, {"measurement": "CBD Solubility", "setting": "[1]; in OM, 37 ± 0.5 °C", "result": "540.31 ± 4.59 ^a mg/g"}, {"measurement": "CBD Solubility", "setting": "[1]; in P20, 37 ± 0.5 °C", "result": "261.73 ± 39.33 ^c mg/g"}, {"measurement": "CBD Solubility", "setting": "[1]; in PEG, 37 ± 0.5 °C", "result": "342.18 ± 49.90 ^b mg/g"}, {"measurement": "CBD Solubility", "setting": "[1]; in PG, 37 ± 0.5 °C", "result": "521.04 ± 55.42 ^a mg/g"}, {"measurement": "CBD Solubility", "setting": "[1]; in glycerin, 37 ± 0.5 °C", "result": "0.09 ± 0.03 ^d mg/g"}, {"measurement": "solubility at 24 h", "setting": "[1]; simulated saliva fluid (SSF), simulated saliva fluid pH 6.8, read-out: solubility of CBD in pH 6.8 SSF", "result": "< 5", "unit": "µg/mL"}, {"measurement": "solubility at 24 h", "setting": "[1]; water, converted with the specific gravity of water, read-out: CBD solubility in water", "result": "< 5", "unit": "µg/mL"}, {"measurement": "solubility of CBD in 50% EtOH", "setting": "[2]; 50% EtOH receiver medium, ref Casirahi et al. [44]", "result": "2200 ± 100", "unit": "µg/mL"}, {"measurement": "water solubility", "setting": "[2]; ref [3],[4]", "result": 5, "unit": "ppm"}, {"measurement": "calculated log n-octanol–water partition coefficient (Kow)", "setting": "[3]", "result": "8 and ~ 8"}]}]}
